Like-named read-outs stand apart in the source and are kept apart here.
Molecular target: T1, Full-length glucokinase (beta cell isoform) (Homo sapiens, UniProt P35557)
T1 construct: Full-length glucokinase (beta cell isoform) was His-tagged at N-terminus; His tag (N); made in house
T1 sequence (P35557 1-465): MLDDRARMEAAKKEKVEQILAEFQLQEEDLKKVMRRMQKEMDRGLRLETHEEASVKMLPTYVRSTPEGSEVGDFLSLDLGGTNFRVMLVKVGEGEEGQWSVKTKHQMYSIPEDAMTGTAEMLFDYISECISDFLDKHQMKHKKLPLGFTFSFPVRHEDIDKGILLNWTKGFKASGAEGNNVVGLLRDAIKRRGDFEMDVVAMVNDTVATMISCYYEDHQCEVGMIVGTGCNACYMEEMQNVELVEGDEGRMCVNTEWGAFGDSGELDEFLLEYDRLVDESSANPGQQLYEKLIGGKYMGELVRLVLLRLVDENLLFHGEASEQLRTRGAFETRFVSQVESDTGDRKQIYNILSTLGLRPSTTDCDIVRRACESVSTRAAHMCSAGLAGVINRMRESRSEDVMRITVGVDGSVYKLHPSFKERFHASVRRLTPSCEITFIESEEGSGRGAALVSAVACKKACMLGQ
Experiment: Glucokinase biochemical assay (PK/LDH-coupled, NADH depletion at 340 nm): % activation, EC50, % max activation
Conditions: 5 mM glucose; for activation at 10 µM: read-out: % Activation at 10 uM; for EC50: read-out: EC50; for Emax: fitted maximum activation, read-out: % Max Activation
Summary of the method: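 Activation expressed as (Va/Vo−1)×100, where initial rates with and without compound come from NADH depletion at 340 nm over 200–900 s. Enzyme is His-tagged human beta-cell GK, full length, run at room temperature in HEPES buffer with 1 mM ATP and 5 mM glucose. DMSO 1%.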

[1] = 10 uM compound, % Activation=(Va/Vo−1)×100
[2] = compound at 10 uM, 1 mM ATP, room temperature

Row | SMILES | activation at 10 µM [1] [%] | EC50 (GK activation) [nM] | Emax [%] | activation at 10 µM [2] [%] | EC50 (1 mM ATP, room temperature) [nM] | Emax (1 mM ATP) [%]
1 | COC(C)CCOc1cc(C(=O)Nc2ccn(C)n2)cc2c1CC(C)(C)O2 (centres unmarked) [Example 101, 4-(3-Methoxy-butoxy)-2,2-dimethyl-2,3-dihydro-benzofuran-6-carboxylic acid (1-methyl-1H-pyrazol-3-yl)-amide] | 94.7 | 6000 | 125 |  |  | 
2 | Cc1ccc(NC(=O)c2cc(Oc3ccc(C(=O)N(C)C)cc3)c3oc(C)cc3c2)nc1 [Example 339, 7-{4-[(Dimethylamino)carbonyl]phenoxy}-2-methyl-N-(5-methylpyridin-2-yl)-1-benzofuran-5-carboxamide] | -0.7 |  |  |  |  | 
3 | Cc1ccc(NC(=O)c2cc(Oc3ccc(S(=O)(=O)N(C)C)c(F)c3)c3cc(C)oc3c2)nc1 [Example 304, 4-{4-[(Dimethylamino)sulfonyl]-3-fluorophenoxy}-2-methyl-N-(5-methyl-pyridin-2-yl)-1-benzofuran-6-carboxamide] | 94.6 | 240 | 89 |  |  | 
4 | CCc1nnc(NC(=O)c2cc(Oc3ccc(S(C)(=O)=O)cc3)c3c(c2)OC(C)(C)C3)s1 [Example 27, 4-(4-Methanesulfonyl-phenoxy)-2,2-dimethyl-2,3-dihydro-benzofuran-6-carboxylic acid(5-ethyl-[1,3,4]thiadiazol-2-yl)-amide] | 112 | 1100 | 112 |  |  | 
5 | Cn1ccc(NC(=O)c2cc(OCc3noc(C(C)(C)C)n3)c3c(c2)OC(C)(C)C3)n1 [Example 91, 4-(5-tert-Butyl-[1,2,4]oxadiazol-3-ylmethoxy)-2,2-dimethyl-2,3-dihydro-benzofuran-6-carboxylic acid (1-methyl-1H-pyrazol-3-yl)-amide] | 150 | 3500 | 150 |  |  | 
6 | Cc1nnc(NC(=O)c2cc(Oc3ccc(S(C)(=O)=O)cc3)c3c(c2)OC(C)(C)C3)s1 [Example 24, 4-(4-Methanesulfonyl-phenoxy)-2,2-dimethyl-2,3-dihydro-benzofuran-6-carboxylic acid(5-methyl-[1,3,4]thiadiazol-2-yl)-amide] | 121 | 1490 | 140 |  |  | 
7 | Cn1ccc(NC(=O)c2cc(Oc3cc(F)c(C(=O)N4CCC4)c(F)c3)c3c(c2)OC(C(F)F)C3)n1 (centres unmarked) [Example 223, 4-[4-(Azetidine-1-carbonyl)-3,5-difluoro-phenoxy]-2-difluoromethyl-2,3-dihydro-benzofuran-6-carboxylic acid (1-methyl-1H-pyrazol-3-yl)-amide] | 112 | 680 | 127 |  |  | 
8 | Cc1ccc(NC(=O)c2cc(OC(C)C)cc3oc(Br)cc23)nc1 [Example 345, 2-Bromo-6-isopropoxy-N-(5-methylpyridin-2-yl)benzofuran-4-carboxamide] | 75.6 | 4000 | 116 |  |  | 
9 | CCNC(=O)c1ncc(Oc2cc(C(=O)Nc3ccn(C)n3)cc3c2CC(C)(C)O3)cc1NCC [Example 175, 5-[2,2-Dimethyl-6-(1-methyl-1H-pyrazol-3-ylcarbamoyl)-2,3-dihydro-benzofuran-4-yloxy]-3-ethylamino-pyridine-2-carboxylic acid ethylamide] | 233 | 770 | 251 |  |  | 
10 | COCC1Cc2c(Oc3ccc(C(=O)N4CCC4)cc3)cc(C(=O)Nc3ccn(C)n3)cc2O1 (centres unmarked) [Example 208, 4-[4-(Azetidine-1-carbonyl)-phenoxy]-2-methoxymethyl-2,3-dihydro-benzofuran-6-carboxylic acid (1-methyl-1H-pyrazol-3-yl)-amide] | 83.9 | 710 | 98 |  |  | 
11 | COCCN1Cc2c(Oc3ccc(S(C)(=O)=O)cc3)cc(C(=O)Nc3ccn(C)n3)cc2C1=O [Example 388, 2-(2-Methoxyethyl)-N-(1-methyl-1H-pyrazol-3-yl)-7-(4-(methylsulfonyl)-phenoxy)-3-oxoisoindoline-5-carboxamide] |  |  |  | 39.7 |  | 
12 | Cn1ncc(NC(=O)c2cc(Oc3ccc(S(=O)(=O)C4CC4)cc3)c3c(c2)OC(C)(C)C3)n1 [Example 131, 4-(4-Cyclopropanesulfonyl-phenoxy)-2,2-dimethyl-2,3-dihydro-benzofuran-6-carboxylic acid (2-methyl-2H-[1,2,3]triazol-4-yl)-amide] | 292 | 210 | 272 |  |  | 
13 | CN(C)C(=O)c1ccc(Oc2cc(C(=O)Nc3ccn(C)n3)cc3c2CC(C)(C)O3)cc1 [Example 149, 4-(4-Dimethylcarbamoyl-phenoxy)-2,2-dimethyl-2,3-dihydro-benzofuran-6-carboxylic acid (1-methyl-1H-pyrazol-3-yl)-amide] | 105 | 120 | 104 |  |  | 
14 | Cn1ccc(NC(=O)c2cc(Oc3cnc(C(=O)N4CC(F)C4)c(F)c3)c3c(c2)OC(C)(C)C3)n1 [Example 403, 4-(5-fluoro-6-(3-fluoroazetidine-1-carbonyl)pyridin-3-yloxy)-2,2-dimethyl-N-(1-methyl-1H-pyrazol-3-yl)-2,3-dihydrobenzofuran-6-carboxamide] |  |  |  | 196 | 121 | 191
15 | Cc1ccc(NC(=O)c2cc(Oc3ccc(S(C)(=O)=O)cc3)c3c(c2)OC(C)(CO)C3)nc1 (centres unmarked) [Example 230, 2-Hydroxymethyl-4-(4-methanesulfonyl-phenoxy)-2-methyl-2,3-dihydro-benzofuran-6-carboxylic acid (5-methyl-pyridin-2-yl)-amide] | 91.8 | 330 | 95 |  |  | 
16 | CCc1cc2c(Oc3ccc(S(C)(=O)=O)cc3)cc(C(=O)Nc3ccn(C)n3)cc2o1 [Example 275, 2-Ethyl-N-(1-methyl-1H-pyrazol-3-yl)-4-[4-(methylsulfonyl)-phenoxy]-1-benzofuran-carboxamide] | 211 | 2600 | 210 |  |  | 
17 | Cn1ccc(NC(=O)c2cc(Oc3ccc(S(C)(=O)=O)c(F)c3)c3c(c2)OC(C)(CO)C3)n1 (centres unmarked) [Example 232, 4-(3-Fluoro-4-methanesulfonyl-phenoxy)-2-hydroxymethyl-2-methyl-2,3-dihydro-benzofuran-6-carboxylic acid (1-methyl-1H-pyrazol-3-yl)-amide] | 188 | 390 | 184 |  |  | 
18 | Cn1ncc(NC(=O)c2cc(Oc3ccc(S(C)(=O)=O)c(F)c3)c3c(c2)OC(C)(C)C3)n1 [Example 117, 4-(3-Fluoro-4-methanesulfonyl-phenoxy)-2,2-dimethyl-2,3-dihydro-benzofuran-6-carboxylic acid (2-methyl-2H-[1,2,3]triazol-4-yl)-amide] | 325 | 150 | 283 |  |  | 
19 | Cc1cc2c(Oc3ccc(S(C)(=O)=O)cc3)cc(C(=O)Nc3ccccn3)cc2o1 [Example 257, 2-Methyl-4-(4-(methylsulfonyl)phenoxy)-N-(pyridin-2-yl)-benzofuran-6-carboxamide] | 111 | 1400 | 119 |  |  | 
20 | CN(CCO)C(=O)c1ccc(Oc2cc(C(=O)Nc3ccn(C)n3)cc3c2CC(C)(C)O3)cc1F [Example 66, 4-{3-Fluoro-4-[(2-hydroxy-ethyl)-methyl-carbamoyl]-phenoxy}-2,2-dimethyl-2,3-dihydro-benzofuran-6-carboxylic acid(1-methyl-1H-pyrazol-3-yl)-amide] | 149 | 410 | 168 |  |  | 

Reference: patent US8119624B2, “Fused phenyl amido heterocyclic compounds” (Pfizer Inc., priority 2006, dated 2012)
